Test results: ChEMBL document CHEMBL4715821, “Discovery of 4-ethoxy-7H-pyrrolo[2,3-d]pyrimidin-2-amines as potent, selective and orally bioavailable LRRK2 inhibitors” (Bioorg Med Chem Lett, 2018)

Key:
[1] = biological target: Serine/threonine-protein kinase WNK1 (Homo sapiens) (UniProt Q9H4A3); assay: Inhibition of wild-type human partial length WNK1 (Q194 to A490 residues) expressed in mammalian expression system assessed as residual activity at 1 uM by Kinomescan method relative to control
[2] = biological target: Serine/threonine-protein kinase pim-1 (Homo sapiens) (UniProt P11309); assay: Inhibition of wild-type human partial length PIM1 (A15 to K313 residues) expressed in bacterial expression system assessed as residual activity at 1 uM by Kinomescan method relative to control
[3] = biological target: Calcium/calmodulin-dependent protein kinase type 1B (Homo sapiens) (UniProt Q6P2M8); assay: Inhibition of wild-type human partial length CAMK1B (W9 to A311 residues) expressed in mammalian expression system assessed as residual activity at 1 uM by Kinomescan method relative to control
[4] = biological target: Serine/threonine-protein kinase haspin (Homo sapiens) (UniProt Q8TF76); assay: Inhibition of wild-type human partial length HASPIN (I452 to K798 residues) expressed in mammalian expression system assessed as residual activity at 1 uM by Kinomescan method relative to control
[5] = biological target: Tyrosine-protein kinase TXK (Homo sapiens) (UniProt P42681); assay: Inhibition of wild-type human partial length TXK (L238 to W527 residues) expressed in bacterial expression system assessed as residual activity at 1 uM by Kinomescan method relative to control
[6] = biological target: Activin receptor type-1-like (Homo sapiens) (UniProt P37023); assay: Inhibition of wild-type human partial length ACVRL1 (L164 to Q503 residues) expressed in bacterial expression system assessed as residual activity at 1 uM by Kinomescan method relative to control
[7] = biological target: Protein kinase C beta type (Homo sapiens) (UniProt P05771); assay: Inhibition of PKCbeta1 (unknown origin) assessed as residual activity at 1 uM by Kinomescan method relative to control
[8] = biological target: Receptor tyrosine-protein kinase erbB-2 (Homo sapiens) (UniProt P04626); assay: Inhibition of wild-type human partial length ERBB2 (K646 to V1225 residues) expressed in mammalian expression system assessed as residual activity at 1 uM by Kinomescan method relative to control
[9] = biological target: Serine/threonine-protein kinase Nek4 (Homo sapiens) (UniProt P51957); assay: Inhibition of wild-type human full length NEK4 (M1 to F841 residues) expressed in mammalian expression system assessed as residual activity at 1 uM by Kinomescan method relative to control
[10] = In vivo inhibition of LRRK2 in Han-Wistar rat assessed as reduction in Ser935 phosphorylation in lung at 10 to 100 mg/kg, po by Western blot analysis; assay type: functional; parameters: scale not given: the % may be the effect or the level left; conditions: dose 10-100 mg/kg
[11] = biological target: Serine/threonine-protein kinase tousled-like 1 (Homo sapiens) (UniProt Q9UKI8); assay: Inhibition of wild-type human partial length TLK1 (K447 to A754 residues) expressed in bacterial expression system assessed as residual activity at 1 uM by Kinomescan method relative to control
[12] = biological target: Death-associated protein kinase 1 (Homo sapiens) (UniProt P53355); assay: Inhibition of wild-type human partial length DAPK1 (M1 to F296 residues) expressed in bacterial expression system assessed as residual activity at 1 uM by Kinomescan method relative to control
[13] = species on record: Homo sapiens; assay: Inhibition of wild-type human full length CDK9 (M1 to F372 residues)/cyclin T1 expressed in bacterial expression system assessed as residual activity at 1 uM by Kinomescan method relative to control
[14] = biological target: Serine/threonine-protein kinase 3 (Homo sapiens) (UniProt Q13188); assay: Inhibition of wild-type human partial length MST2 (D17 to E318 residues) expressed in bacterial expression system assessed as residual activity at 1 uM by Kinomescan method relative to control
[15] = biological target: Ribosomal protein S6 kinase alpha-5 (Homo sapiens) (UniProt O75582); assay: Inhibition of wild-type human partial length N-terminal RPS6KA5 kinase domain 1 expressed in bacterial expression system assessed as residual activity at 1 uM by Kinomescan method relative to control
[16] = In vivo inhibition of LRRK2 in C57BL6 mouse assessed as reduction in Ser935 phosphorylation in lung at 45 mg/kg, po after 1 hr by Western blot analysis; assay type: functional; parameters: scale not given: the % may be the effect or the level left
[17] = biological target: Ephrin type-B receptor 1 (Homo sapiens) (UniProt P54762); assay: Inhibition of wild-type human partial length EPHB1 (P589 to T911 residues) expressed in bacterial expression system assessed as residual activity at 1 uM by Kinomescan method relative to control
[18] = biological target: Serine/threonine-protein kinase MARK1 (Homo sapiens) (UniProt Q9P0L2); assay: Inhibition of wild-type human partial length MARK1 (Q30 to T341 residues) expressed in bacterial expression system assessed as residual activity at 1 uM by Kinomescan method relative to control
[19] = biological target: Protein kinase C delta type (Homo sapiens) (UniProt Q05655); assay: Inhibition of PKCdelta (unknown origin) assessed as residual activity at 1 uM by Kinomescan method relative to control
[20] = biological target: cGMP-dependent protein kinase 2 (Homo sapiens) (UniProt Q13237); assay: Inhibition of wild-type human partial length PRKG2 (S422 to F762 residues) expressed in mammalian expression system assessed as residual activity at 1 uM by Kinomescan method relative to control
[21] = biological target: Hepatocyte growth factor receptor (Homo sapiens) (UniProt P08581); assay: Inhibition of wild-type human partial length c-MET (D1010 to S1367 residues) expressed in bacterial expression system assessed as residual activity at 1 uM by Kinomescan method relative to control
[22] = biological target: Leukocyte tyrosine kinase receptor (Homo sapiens) (UniProt P29376); assay: Inhibition of wild-type human partial length LTK (P422 to S744 residues) expressed in bacterial expression system assessed as residual activity at 1 uM by Kinomescan method relative to control
[23] = biological target: Platelet-derived growth factor receptor alpha (Homo sapiens) (UniProt P16234); assay: Inhibition of wild-type human partial length PDGFRA (V575 to D1002 residues) expressed in mammalian expression system assessed as residual activity at 1 uM by Kinomescan method relative to control
[24] = biological target: Casein kinase II subunit alpha' (Homo sapiens) (UniProt P19784); assay: Inhibition of CK2a2 (unknown origin) assessed as residual activity at 1 uM by Kinomescan method relative to control
[25] = biological target: Serine/threonine-protein kinase A-Raf (Homo sapiens) (UniProt P10398); assay: Inhibition of ARAF (unknown origin) assessed as residual activity assessed as residual activity at 1 uM relative to control
[26] = biological target: Ribosomal protein S6 kinase alpha-1 (Homo sapiens) (UniProt Q15418); assay: Inhibition of wild-type human partial length N-terminal RSK1 kinase domain 1 (M1 to E388 residues) expressed in bacterial expression system assessed as residual activity at 1 uM by Kinomescan method relative to control
[27] = biological target: Cyclin-dependent kinase 5/CDK5 activator 1 (Homo sapiens) (UniProt Q00535+Q15078); assay: Inhibition of wild-type human full length CDK5 (M1 to P292 residues)/p35 expressed in bacterial expression system assessed as residual activity at 1 uM by Kinomescan method relative to control

Which results are given for `CCOc1nc(Nc2ccc(C(=O)N3CCOCC3)cc2OC)nc2[nH]ccc12`?
Activity [1]: 78.5%; Activity [2]: 99.7%; Activity [3]: 117%; Activity [4]: 89.5%; Activity [5]: 88%; Activity [6]: 74%; Activity [7]: 100%; Activity [8]: 110%; Activity [9]: 95%; Activity [10]: 100%; Activity [11]: 98.1%; Activity [12]: 64.9%; Activity [13]: 91.6%; Activity [14]: 99.3%; Activity [15]: 97.6%; Activity [16]: 80%; Activity [17]: 100%; Activity [18]: 98.5%; Activity [19]: 99.8%; Activity [20]: 104%; Activity [21]: 104%; Activity [22]: 20.2%; Activity [23]: 101%; Activity [24]: 86.1%; Activity [25]: 95.9%; Activity [26]: 87.1%; Activity [27]: 93.1%
